Test [1] relates to phosphorylated 4E-BP1 Thr37/46 (p4E-BP1 Thr37/46), mTORC1 activity, PC3 cells. Description: mTOR target engagement assay, immunofluorescent cell-based, p4E-BP1 Thr37/46 readout (mTORC1 activity). The note with it: read-out: p4E-BP1 Thr37/46 IC50. The gist of the method:
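Seed PC3 cells overnight; treat with compound dilutions for ninety minutes at 37° C; fix with glyoxal and block; stain with anti-p4E-BP1 Thr37/46 overnight at 4° C, then fluorescent secondary; read fluorescence and fit IC50 against DMSO-only controls.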

In test [2] the test system is phosphorylated AKT Ser473 (pAKT S473), mTORC2 activity, PC3 cells. The test is described as follows: mTOR target engagement assay, immunofluorescent cell-based, pAKT S473 readout (mTORC2 activity). The gist of the method:
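After blocking, cells were stained overnight at 4 °C with anti-pAKT S473 antibody, then a fluorescent secondary; inhibition was read as reduced fluorescence intensity.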

Setting [3] is: Homo sapiens, PC-3, PC3 cells, compound treatment ninety minutes at 37° C.
Where [4] appears, read: Homo sapiens, PC-3, Table 3-1, PC3 cells.
The mark [5] stands for this setting: Homo sapiens, PC-3, Table 6-1, PC3 cells.

The values that follow come from patent US9227971B2, “Pyrazolo[1,5-a]pyrimidine compounds as mTOR inhibitors” (Merck Sharp & Dohme Corp., priority 2010, dated 2016).

Read-outs that look alike come from different tables or passages of the source.

As to `COCc1c([C@@H]2C[C@H]3CC[C@@H](C2)N3C(=O)c2nnc[nH]2)nc2c(-c3ccc(-c4ccc(OC)cc4)nc3)cnn2c1N` [Compound 5.6, ((1R,3s,5S)-3-(7-amino-6-(methoxymethyl)-3-(6-(4-methoxyphenyl)pyridin-3-yl)pyrazolo[1,5-a]pyrimidin-5-yl)-8-azabicyclo[3.2.1]octan-8-yl)(4H-1,2,4-triazol-3-yl)methanone], the IC50 in test [1] (setting [3]) and in test [2] (setting [3]) was 1 to 100 nM in each case.
For the molecule `CC(=O)c1c(N2C3CCC2CN(C(=O)CO)C3)nc2c(-c3ccc(-c4ccccc4)nc3)cnn2c1N` [Compound 8.7, 1-(8-(6-acetyl-7-amino-3-(6-phenylpyridin-3-yl)pyrazolo[1,5-a]pyrimidin-5-yl)-3,8-diazabicyclo[3.2.1]octan-3-yl)-2-hydroxyethanone], the IC50 in test [1] (Homo sapiens, PC-3, PC3 cells) was 1000 to 10000 nM; in test [2] (Homo sapiens, PC-3, PC3 cells) it was 100 to 1000 nM.
`[2H]C([2H])([2H])Oc1ccc(-c2ccc(-c3cnn4c(N)c(C(C)=O)c([C@@H]5C[C@H]6CC[C@@H](C5)N6C(=O)CO)nc34)cn2)cc1` [Compound 1.1.78, 1-((1R,3s,5S)-3-(6-acetyl-7-amino-3-(6-(4-methoxy-(D3)-phenyl)pyridin-3-yl)pyrazolo[1,5-a]pyrimidin-5-yl)-8-azabicyclo[3.2.1]octan-8-yl)-2-hydroxyethanone]: the IC50 in test [1] (setting [3]) and in test [2] (setting [3]) was 1 to 100 nM throughout.
With `Nc1cc([C@@H]2C[C@H]3CC[C@@H](C2)N3C(=O)c2nnc[nH]2)nc2c(-c3ccc4[nH]ncc4c3)cnn12` [Compound 2.12, ((1R,3s,5S)-3-(7-amino-3-(1H-indazol-5-yl)pyrazolo[1,5-a]pyrimidin-5-yl)-8-azabicyclo[3.2.1]octan-8-yl)(1H-1,2,4-triazol-5-yl)methanone], the IC50 in test [1] (setting [3]) and in test [2] (setting [3]) was over 10000 nM in each case.
Take `Nc1c(C2CC2)c([C@]2(O)C[C@H]3CC[C@@H](C2)N3C(=O)c2nnc[nH]2)nc2c(-c3ccc(-c4ccccc4)nc3)cnn12` [Compound 8.24, ((1R,3r,5S)-3-(7-amino-6-cyclopropyl-3-(6-phenylpyridin-3-yl)pyrazolo[1,5-a]pyrimidin-5-yl)-3-hydroxy-8-azabicyclo[3.2.1]octan-8-yl)(4H-1,2,4-triazol-3-yl)methanone]: the IC50 was 1000 to 10000 nM in test [1] (Homo sapiens, PC-3, PC3 cells) and 100 to 1000 nM in test [2] (Homo sapiens, PC-3, PC3 cells).
For the molecule `COc1ccc(-c2ccc(-c3cnn4c(N)cc([C@@H]5C[C@H]6CC[C@@H](C5)N6C(=O)c5nnc[nH]5)nc34)cn2)cc1F` [Compound 2.5, ((1R,3s,5S)-3-(7-amino-3-(6-(3-fluoro-4-methoxyphenyl)pyridin-3-yl)pyrazolo[1,5-a]pyrimidin-5-yl)-8-azabicyclo[3.2.1]octan-8-yl)(4H-1,2,4-triazol-3-yl)methanone], the figures for the IC50 in test [1] (setting [3]) and in test [2] (setting [3]) were 1000 to 10000 nM and 100 to 1000 nM, respectively.
Consider `CS(=O)(=O)c1c([C@@H]2C[C@H]3CC[C@@H](C2)N3C(=O)c2cc(N)n[nH]2)nc2c(-c3ccc(-c4ccccc4F)nc3)cnn2c1N` [Compound 3.134], for which the IC50 was 1 to 100 nM in test [1] (Table 3-1, PC3 cells) and 1 to 100 nM in test [2] (Table 3-1, PC3 cells).
On to `Nc1c(C2CC2)c([C@@H]2C[C@H]3CC[C@@H](C2)N3C(=O)c2nnc[nH]2)nc2c(C#Cc3cccnc3)cnn12` [Compound 8.62, ((1R,3s,5S)-3-(7-amino-6-cyclopropyl-3-(pyridin-3-ylethynyl)pyrazolo[1,5-a]pyrimidin-5-yl)-8-azabicyclo[3.2.1]octan-8-yl)(4H-1,2,4-triazol-3-yl)methanone], for which the IC50 in test [1] (Homo sapiens, PC-3, PC3 cells) lay in the range of 1000 to 10000 nM; in test [2] (Homo sapiens, PC-3, PC3 cells), 1000 to 10000 nM.
`COc1ccc(-c2ccc(-c3cnn4c(N)c(S(C)(=O)=O)c([C@@H]5C[C@H]6CC[C@@H](C5)N6C(=O)c5nnc(N)[nH]5)nc34)cn2)cc1F` [Compound 3.100, ((1R,3s,5S)-3-(7-amino-3-(6-(3-fluoro-4-methoxyphenyl)pyridin-3-yl)-6-(methylsulfonyl)pyrazolo[1,5-a]pyrimidin-5-yl)-8-azabicyclo[3.2.1]octan-8-yl)(5-amino-4H-1,2,4-triazol-3-yl)methanone]: the IC50 in test [1] (setting [4]) and in test [2] (setting [4]) was 1 to 100 nM throughout.
As for `CC(=O)c1c([C@@H]2C[C@H]3CC[C@@H](C2)N3C(=O)c2nnc[nH]2)nc2c(-c3ccc(-n4cccn4)nc3)cnn2c1N` [Compound 1.1.177, 1-(3-(6-(1H-pyrazol-1-yl)pyridin-3-yl)-5-((1R,3s,5S)-8-(4H-1,2,4-triazole-3-carbonyl)-8-azabicyclo[3.2.1]octan-3-yl)-7-aminopyrazolo[1,5-a]pyrimidin-6-yl)ethanone], the IC50 in test [1] (setting [3]) and in test [2] (setting [3]) was 1 to 100 nM throughout.
As to `CC(=O)c1c([C@@H]2C[C@H]3CC[C@@H](C2)N3C(=O)CO)nc2c(-c3ccc(-c4n[nH]c(C)c4F)nc3)cnn2c1N` [Compound 1.11..107, 1-((1R,3s,5S)-3-(6-acetyl-7-amino-3-(6-(4-fluoro-5-methyl-1H-pyrazol-3-yl)pyridin-3-yl)pyrazolo[1,5-a]pyrimidin-5-yl)-8-azabicyclo[3.2.1]octan-8-yl)-2-hydroxyethanone], the IC50 in test [1] (setting [3]) and in test [2] (setting [3]) was 100 to 1000 nM in each case.
Regarding `CC(=O)c1c([C@@H]2C[C@H]3CC[C@@H](C2)N3C(=O)[C@@H](C)O)nc2c(-c3ccc(-c4ccccc4)nc3)cnn2c1N` [Compound 1.1.2], the values for the IC50 in test [1] (setting [3]) and in test [2] (setting [3]) were 100 to 1000 nM and 1 to 100 nM, respectively.
On to `CS(=O)(=O)c1c([C@@H]2C[C@H]3CC[C@@H](C2)N3C(=O)[C@@H]2COC(=O)N2)nc2c(-c3ccc(-c4ccccc4)nc3)cnn2c1N` [Compound 3.141, (S)-4-((1R,3R,5S)-3-(7-amino-6-(methylsulfonyl)-3-(6-phenylpyridin-3-yl)pyrazolo[1,5-a]pyrimidin-5-yl)-8-azabicyclo[3.2.1]octane-8-carbonyl)oxazolidin-2-one], for which the IC50 in test [1] (setting [4]) and in test [2] (setting [4]) was 1000 to 10000 nM each time.
For `Cc1n[nH]cc1C(=O)N1[C@@H]2CC[C@H]1C[C@H](c1nc3c(-c4ccc(-c5ccccc5)nc4)cnn3c(N)c1S(C)(=O)=O)C2` [Compound 3.80, ((1R,3s,5S)-3-(7-amino-6-(methylsulfonyl)-3-(6-phenylpyridin-3-yl)pyrazolo[1,5-a]pyrimidin-5-yl)-8-azabicyclo[3.2.1]octan-8-yl)(3-methyl-1H-pyrazol-4-yl)methanone], the IC50 in test [1] (setting [4]) and in test [2] (setting [4]) was 1 to 100 nM in each case.
Take `Nc1cc([C@@H]2C[C@H]3CC[C@@H](C2)N3)nc2c(-c3ccc(-c4ccccc4)nc3)cnn12` [Compound 2.23, 5-((1R,3s,5S)-8-azabicyclo[3.2.1]octan-3-yl)-3-(6-phenylpyridin-3-yl)pyrazolo[1,5-a]pyrimidin-7-amine]: the IC50 in test [1] (setting [3]) and in test [2] (setting [3]) was 1000 to 10000 nM in each case.
Consider `CS(=O)(=O)c1c([C@@H]2C[C@H]3CC[C@@H](C2)N3c2nnn[nH]2)nc2c(-c3ccc(-c4ccccc4)nc3)cnn2c1N` [Compound 3.18, 5-((1R,3s,5S)-8-(1H-tetrazol-5-yl)-8-azabicyclo[3.2.1]octan-3-yl)-6-(methylsulfonyl)-3-(6-phenylpyridin-3-yl)pyrazolo[1,5-a]pyrimidin-7-amine], for which the IC50 in test [1] (setting [4]) and in test [2] (setting [4]) was over 10000 nM in each case.
As to `CCS(=O)(=O)c1c([C@@H]2C[C@H]3CC[C@@H](C2)N3C(=O)c2nnc[nH]2)nc2c(-c3ccc(-c4ccccc4)nc3)cnn2c1N` [Compound 3.161, ((1R,3s,5S)-3-(7-amino-6-(ethylsulfonyl)-3-(6-phenylpyridin-3-yl)pyrazolo[1,5-a]pyrimidin-5-yl)-8-azabicyclo[3.2.1]octan-8-yl)(4H-1,2,4-triazol-3-yl)methanone], the IC50 in test [1] (setting [4]) and in test [2] (setting [4]) was 1 to 100 nM each time.
As to `CC(=O)c1c([C@@H]2C[C@H]3CC[C@@H](C2)N3C(=O)CO)nc2c(-c3ccc(-c4ncc[nH]4)c(F)c3)cnn2c1N` [Compound 6.40, 1-((1R,3s,5S)-3-(6-acetyl-7-amino-3-(3-fluoro-4-(1H-imidazol-2-yl)phenyl)pyrazolo[1,5-a]pyrimidin-5-yl)-8-azabicyclo[3.2.1]octan-8-yl)-2-hydroxyethanone], the IC50 in test [1] (setting [5]) and in test [2] (setting [5]) was 1 to 100 nM throughout.
Take `Nc1c(C2CC2)c([C@@H]2C[C@H]3CC[C@@H](C2)N3C(=O)c2nnc[nH]2)nc2c(-c3ccc(-c4cccc(F)c4)nc3)cnn12` [Compound 4.21, ((1R,3s,5S)-3-(7-amino-6-cyclopropyl-3-(6-(3-fluorophenyl)pyridin-3-yl)pyrazolo[1,5-a]pyrimidin-5-yl)-8-azabicyclo[3.2.1]octan-8-yl)(4H-1,2,4-triazol-3-yl)methanone]: the IC50 in test [1] (setting [3]) and in test [2] (setting [3]) was 1 to 100 nM each time.
Consider `CC(=O)c1c([C@@H]2C[C@H]3CC[C@@H](C2)N3C(=O)CO)nc2c(-c3ccc(C#CC4CC4)nc3)cnn2c1N` [Compound 8.61, 1-((1R,3s,5S)-3-(6-acetyl-7-amino-3-(6-(cyclopropylethynyl)pyridin-3-yl)pyrazolo[1,5-a]pyrimidin-5-yl)-8-azabicyclo[3.2.1]octan-8-yl)-2-hydroxyethanone], for which the IC50 in test [1] (Homo sapiens, PC-3, PC3 cells) was in the range of 100 to 1000 nM; in test [2] (Homo sapiens, PC-3, PC3 cells), 100 to 1000 nM.
